Test results from paper PMC3929961 (Molecular cell, 2013).

Assays:
Format in all cases: binding
EcDnaB [1] = target: T1, EcDnaB (Escherichia coli, UniProt P0ACB0); test: negative-stain EM 2D class averages and SAXS; conditions: 0-1 mM AMPPNP in SAXS
GstDnaB = target: T2, GstDnaB (Geobacillus stearothermophilus, UniProt Q9X4C9); test: negative-stain EM 2D class averages
T2 sequence (Q9X4C9 1-454): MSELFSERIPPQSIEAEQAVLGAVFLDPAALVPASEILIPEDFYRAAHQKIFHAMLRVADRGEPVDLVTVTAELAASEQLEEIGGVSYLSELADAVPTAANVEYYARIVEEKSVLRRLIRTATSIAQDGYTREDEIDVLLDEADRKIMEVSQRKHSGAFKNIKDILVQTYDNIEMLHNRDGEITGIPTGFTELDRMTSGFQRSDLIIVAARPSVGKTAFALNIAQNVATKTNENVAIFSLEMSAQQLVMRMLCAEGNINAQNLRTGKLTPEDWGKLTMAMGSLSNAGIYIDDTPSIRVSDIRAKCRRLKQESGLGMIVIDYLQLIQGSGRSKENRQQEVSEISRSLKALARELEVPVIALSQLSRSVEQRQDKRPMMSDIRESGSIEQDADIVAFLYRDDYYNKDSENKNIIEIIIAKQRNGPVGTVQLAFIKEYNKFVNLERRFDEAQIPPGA

EcDnaB [2] = target: T1, EcDnaB; test: negative-stain EM 2D class averages

T1 sequence (P0ACB0 2-471): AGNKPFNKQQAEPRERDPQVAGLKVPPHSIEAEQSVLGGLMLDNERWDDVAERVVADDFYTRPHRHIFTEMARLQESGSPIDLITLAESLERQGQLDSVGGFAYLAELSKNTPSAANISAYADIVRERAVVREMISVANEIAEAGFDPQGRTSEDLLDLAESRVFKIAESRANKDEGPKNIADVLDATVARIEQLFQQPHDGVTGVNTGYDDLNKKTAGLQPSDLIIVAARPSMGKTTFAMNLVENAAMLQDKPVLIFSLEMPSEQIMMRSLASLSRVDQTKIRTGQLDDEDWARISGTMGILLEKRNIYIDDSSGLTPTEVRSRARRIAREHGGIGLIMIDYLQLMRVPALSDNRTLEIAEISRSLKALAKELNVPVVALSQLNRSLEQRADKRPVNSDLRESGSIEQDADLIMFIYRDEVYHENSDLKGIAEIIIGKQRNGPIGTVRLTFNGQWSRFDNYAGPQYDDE

Nc1ncnc2c1ncn2[C@@H]1O[C@H](COP(=O)(O)OP(=O)(O)NP(=O)(O)O)[C@@H](O)[C@H]1O [AMPPNP]
negative-stain EM 2D class averages and SAXS (collar constriction) (EcDnaB [1]): two kinds of 2D class averages were observed for EcDnaB in the presence of ATPγS

Nc1ncnc2c1ncn2[C@@H]1O[C@H](COP(=O)(O)OP(=O)(O)OP(=O)(O)O)[C@@H](O)[C@H]1O [ATP]
negative-stain EM 2D class averages (collar constriction) (GstDnaB): 2D EM analysis again revealed evidence for a constricted species in the presence of ATP

Nc1ncnc2c1ncn2[C@@H]1O[C@H](COP(=O)(O)OP(=O)(O)OP(O)(O)=S)[C@@H](O)[C@H]1O [ATPγS]
negative-stain EM 2D class averages (collar constriction) (EcDnaB [2]): two kinds of 2D class averages were observed for EcDnaB in the presence of ATPγS
